{
  "source": "PubChem BioAssay AID1259409",
  "about": "(Chemical Carcinogenesis Research Information System (CCRIS), 2018)",
  "origin": "cited, not measured here",
  "tested_on": "rodent chemically induced tumor inhibition, incidence and multiplicity",
  "test": "CCRIS tumor inhibitor studies",
  "settings": "Route [Inhibitor]: INTRAPERITONEAL, Promoter: NONE USED",
  "data": [
    {"compound": "O=C1C=CC(=O)O1", "note": "(tested in a mixture with another compound)", "values": [
      {"measurement": "tumour outcome (control, treated, inhibition, significance)", "setting": "Carcinogen: N-BUTYL-N-(4-HYDROXYBUTYL)NITROSAMINE, 3817-11-6, Dose [Inhibitor]: 12.5 MG/KG IN 4 WK CYCLES OF 1/WK FOR 3 WK AND 1 WK REST STARTING 1 WK AFTER CARCINOGEN ADMINISTRATION THROUGH END OF ST, Species: MOUSE, Strain/Sex: BDF1/MALE, Target Tissue: Type of Lesion: URINARY BLADDER: TRANSITIONAL CELL CARCINOMA, Dose [Carcinogen]: 7.5 MG 1/WK FOR 8 WK", "result": "19/50 (38%), 14/50 (28%), 26%, not significant"},
      {"measurement": "tumour outcome (control, treated, inhibition, significance)", "setting": "Carcinogen: N-BUTYL-N-(4-HYDROXYBUTYL)NITROSAMINE, 3817-11-6, Dose [Inhibitor]: 12.5 MG/KG IN 4 WK CYCLES OF 3 WK DOSE (1 DOSE/WK) AND 1 WK REST STARTING 1 WK AFTER CARCINOGEN DOSE THROUGH END OF STUD, Species: MOUSE, Strain/Sex: DBF1/MALE, Target Tissue: Type of Lesion: URINARY BLADDER: TRANSITIONAL CELL CARCINOMA, Dose [Carcinogen]: 7.5 MG 1/WK FOR 8 WK", "result": "19/50 (38%), 14/50 (28%), 26%, not significant"},
      {"measurement": "tumour outcome (control, treated, inhibition, significance)", "setting": "Carcinogen: N-BUTYL-N-(4-HYDROXYBUTYL)NITROSAMINE, 3817-11-6, Dose [Inhibitor]: 25 MG/KG IN 4 WK CYCLES OF 1/WK FOR 3 WK AND 1 WK REST STARTING 1 WK AFTER CARCINOGEN ADMINISTRATION THROUGH END OF STUD, Species: MOUSE, Strain/Sex: BDF1/MALE, Target Tissue: Type of Lesion: URINARY BLADDER: TRANSITIONAL CELL CARCINOMA, Dose [Carcinogen]: 7.5 MG 1/WK FOR 8 WK", "result": "19/50 (38%), 7/46 (15%), 61%, p<0.05"},
      {"measurement": "tumour outcome (control, treated, inhibition, significance)", "setting": "Carcinogen: N-BUTYL-N-(4-HYDROXYBUTYL)NITROSAMINE, 3817-11-6, Dose [Inhibitor]: 25 MG/KG IN 4 WK CYCLES OF 3 WK DOSE (1 DOSE/WK) AND 1 WK REST STARTING 1 WK AFTER CARCINOGEN DOSE THROUGH END OF STUDY, Species: MOUSE, Strain/Sex: DBF1/MALE, Target Tissue: Type of Lesion: URINARY BLADDER: TRANSITIONAL CELL CARCINOMA, Dose [Carcinogen]: 7.5 MG 1/WK FOR 8 WK", "result": "19/50 (38%), 7/46 (15%), 61%, p<0.05"},
      {"measurement": "tumour outcome (control, treated, inhibition, significance)", "setting": "Carcinogen: N-METHYL-N-NITROSOUREA, 684-93-5, Dose [Inhibitor]: 12.5 MG/KG IN 4 WK CYCLES OF 1/WK FOR 3 WK AND 1 WK REST STARTING 7 D AFTER CARCINOGEN ADMINISTRATION THROUGH END OF STU, Species: RAT, Strain/Sex: SPRAGUE-DAWLEY/FEMALE, Target Tissue: Type of Lesion: MAMMARY GLAND: ADENOCARCINOMA, Dose [Carcinogen]: 20 MG/KG BW ONCE", "result": "64%, 52%, 19%, not significant"},
      {"measurement": "tumour outcome (control, treated, inhibition, significance)", "setting": "Carcinogen: N-METHYL-N-NITROSOUREA, 684-93-5, Dose [Inhibitor]: 12.5 MG/KG IN 4 WK CYCLES OF 3 WK DOSE (1 DOSE/WK) AND 1 WK REST STARTING 7 D AFTER CARCINOGEN DOSE THROUGH THE END OF S, Species: RAT, Strain/Sex: SPRAGUE-DAWLEY/FEMALE, Target Tissue: Type of Lesion: MAMMARY GLAND: ADENOCARCINOMA, Dose [Carcinogen]: 20 MG/KG BW ONCE", "result": "64%, 52%, 19%, not significant"},
      {"measurement": "tumour outcome (control, treated, inhibition, significance)", "setting": "Carcinogen: N-METHYL-N-NITROSOUREA, 684-93-5, Dose [Inhibitor]: 25 MG/KG IN 4 WK CYCLES OF 1/WK FOR 3 WK AND 1 WK REST STARTING 7 D AFTER CARCINOGEN ADMINISTRATION THROUGH END OF STUDY, Species: RAT, Strain/Sex: SPRAGUE-DAWLEY/FEMALE, Target Tissue: Type of Lesion: MAMMARY GLAND: ADENOCARCINOMA, Dose [Carcinogen]: 20 MG/KG BW ONCE", "result": "64%, 50%, 22%, not significant"},
      {"measurement": "tumour outcome (control, treated, inhibition, significance)", "setting": "Carcinogen: N-METHYL-N-NITROSOUREA, 684-93-5, Dose [Inhibitor]: 25 MG/KG IN 4 WK CYCLES OF 3 WK DOSE (1 DOSE/WK) AND 1 WK REST STARTING 7 D AFTER CARCINOGEN DOSE THROUGH END OF STUDY (, Species: RAT, Strain/Sex: SPRAGUE-DAWLEY/FEMALE, Target Tissue: Type of Lesion: MAMMARY GLAND: ADENOCARCINOMA, Dose [Carcinogen]: 20 MG/KG BW ONCE", "result": "64%, 50%, 22%, not significant"}
    ]}
  ]
}
